The results in this text go back to ChEMBL document CHEMBL1201862, “PubChem BioAssay data set” (2004).

Structures are written as SMILES.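 Tested at 5 concentrations; 48 h exposure; 96-well plates; endpoints linearly interpolated, else capped at highest concentration. GI50 = concentration required for 50% inhibition of growth.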 Calls of active or inactive are those of the source. Rule as the data show it: active = GI50 up to about 1.1 µM and inactive = higher.

Holding throughout (assay): DTP human tumour cell line panel, 48 h
Test [1] concerns NCI/ADR-RES.
Test [2] deals with K562.
Test [3] deals with A549.
Test [4] relates to MOLT-4.
Test [5] deals with TK-10.
For test [6], the system named is SN12C.
In test [7] the test system is SK-MEL-28.
Test [8] has as its system HOP-92.
Test [9] concerns HT-29.
For test [10], the system named is HL-60.
Test [11] relates to SR.
For test [12], the system named is RXF 393.
The test system of test [13] is OVCAR-5.
Test [14] concerns SNB-75.
The test system of test [15] is OVCAR-4.
Test [16] has as its system RPMI-8226.
Test [17] relates to MDA-N.
Test [18] has as its system HCT-15.
The test system of test [19] is T47D.

A word on the GI50: it is the concentration that inhibits growth by half. Regarding `O=C(/C=C1\C[C@H]2C=Nc3ccccc3C(=O)N2C1)NCCCCCNC(=O)/C=C1\C[C@H]2C=Nc3ccccc3C(=O)N2C1`, the GI50 in test [1] is 24.3 µM (inactive); in [2], 2.88 µM (inactive); in test [3], 22.9 µM (inactive); in [4] it was 1.7 µM (inactive); in [5], 4.32 µM (inactive); in [6], 4.74 µM (inactive). The GI50 in test [7] was 12.1 µM (inactive); in [8], 4.63 µM (inactive); in test [9], 11.6 µM (inactive); in test [10], 2.4 µM (inactive); in test [11], 1.6 µM (inactive); in test [12], 3.56 µM (inactive). The GI50 in test [13] is 18.8 µM (inactive); in test [14] it was 13.6 µM (inactive); in [15], 7.53 µM (inactive); in [16], 4.28 µM (inactive); in test [17], 7 µM (inactive); in test [18], 3.44 µM. Moreover, the GI50 in test [19] was 2.53 µM (inactive).

Regarding `O=C(NCCCNCCN1C(=O)c2cccc3cc([N+](=O)[O-])cc(c23)C1=O)c1cc(-c2ccccc2)nc2ccccc12`, the GI50 in test [1] was 4.22 µM (inactive); in [2], 0.836 µM (active); in test [3], 3.31 µM (inactive); in [4], 0.347 µM (active); in test [5] it was 7.74 µM (inactive); in test [6], 3.16 µM (inactive). Also, the GI50 is 1.85 µM (inactive) in [7]; 3.18 µM (inactive) in [8]; 0.971 µM (active) in test [9]; 1.76 µM (inactive) in test [10]; 0.426 µM (active) in test [11]; 1.49 µM (inactive) in test [12]. The GI50 in [13] was 3.94 µM (inactive); in test [14], 3.62 µM (inactive); in test [15] it was 3.2 µM (inactive); in [16], 1.13 µM (inactive); in [17], 1.53 µM (inactive); in test [18], 3.03 µM. Moreover, in test [19], the GI50 was 8.07 µM (inactive).

On to `Cn1c(=O)c2c(nc3sc4c(n32)C(=O)c2c(O)ccc(O)c2C4=O)n(C)c1=O`, for which the GI50 in test [1] is 2.74 µM (inactive); in test [2], 0.64 µM (active); in test [3] it was 12.7 µM (inactive); in [4], 1.31 µM (inactive); in test [5] it was 5.97 µM (inactive); in [6] it was 1.63 µM (inactive). The GI50 in test [7] was 6.05 µM (inactive); in test [8], 2.66 µM (inactive); in test [9] it was 2.19 µM (inactive); in [10], 0.51 µM (active); in test [11], 0.598 µM (active); in [12] it was 2.68 µM (inactive). Further, the GI50 in test [13] is 28 µM (inactive); in test [14], 2.99 µM (inactive); in test [15] it was 1.46 µM (inactive); in test [16], 0.298 µM (active); in test [17], 1.86 µM (inactive); in test [18], 1.73 µM. In addition, the GI50 in [19] was 2.43 µM (inactive).

Turning to `CC1(c2cccc(Cl)c2)CC(c2cccc(Cl)c2)=C(C#N)C(=C(C#N)C#N)N1` (stereo unspecified), the GI50 in [1] is 18.9 µM (inactive); in test [2] it was 14.3 µM (inactive); in test [3], 19.5 µM (inactive); in test [4], 12.5 µM (inactive); in test [5], 17.7 µM (inactive); in [6] it was 19.4 µM (inactive). In addition, the GI50 in test [7] was 20.7 µM (inactive); in [8] it was 6.19 µM (inactive); in [9] it was 27.4 µM (inactive); in [10] it was 18.4 µM (inactive); in [11], 14.3 µM (inactive); in test [12] it was 14.8 µM (inactive). Also, the GI50 in [13] was 24.2 µM (inactive); in test [14], 19.1 µM (inactive); in test [15], 14.2 µM (inactive); in test [16] it was 5.28 µM (inactive); in test [17], 20.1 µM (inactive); in test [18] it was 16 µM. For the same compound, in [19], the GI50 is 13.2 µM (inactive).
